According to patent US9663529B2, “Tricyclic pyrido-carboxamide derivatives as rock inhibitors” (BRISTOL-MYERS SQUIBB COMPANY, priority 2013, dated 2017):
pIC50: −log10 of the molar value.

Tested on: IL-1 beta-induced coronary stenosis
Test: not given
Settings: long term treatment; cited from earlier work
In the case of `O=S(=O)(c1cccc2cnccc12)N1CCCNCC1` [fasudil], the coronary constrictive remodeling is listed as “promote a regression of coronary constrictive remodeling” and the coronary stenosis is listed as “progressively reduce coronary stenosis”.

Biological target: ROCK2 (Homo sapiens (Human), UniProt O75116)
Sequence (O75116 whole entry, species assumed): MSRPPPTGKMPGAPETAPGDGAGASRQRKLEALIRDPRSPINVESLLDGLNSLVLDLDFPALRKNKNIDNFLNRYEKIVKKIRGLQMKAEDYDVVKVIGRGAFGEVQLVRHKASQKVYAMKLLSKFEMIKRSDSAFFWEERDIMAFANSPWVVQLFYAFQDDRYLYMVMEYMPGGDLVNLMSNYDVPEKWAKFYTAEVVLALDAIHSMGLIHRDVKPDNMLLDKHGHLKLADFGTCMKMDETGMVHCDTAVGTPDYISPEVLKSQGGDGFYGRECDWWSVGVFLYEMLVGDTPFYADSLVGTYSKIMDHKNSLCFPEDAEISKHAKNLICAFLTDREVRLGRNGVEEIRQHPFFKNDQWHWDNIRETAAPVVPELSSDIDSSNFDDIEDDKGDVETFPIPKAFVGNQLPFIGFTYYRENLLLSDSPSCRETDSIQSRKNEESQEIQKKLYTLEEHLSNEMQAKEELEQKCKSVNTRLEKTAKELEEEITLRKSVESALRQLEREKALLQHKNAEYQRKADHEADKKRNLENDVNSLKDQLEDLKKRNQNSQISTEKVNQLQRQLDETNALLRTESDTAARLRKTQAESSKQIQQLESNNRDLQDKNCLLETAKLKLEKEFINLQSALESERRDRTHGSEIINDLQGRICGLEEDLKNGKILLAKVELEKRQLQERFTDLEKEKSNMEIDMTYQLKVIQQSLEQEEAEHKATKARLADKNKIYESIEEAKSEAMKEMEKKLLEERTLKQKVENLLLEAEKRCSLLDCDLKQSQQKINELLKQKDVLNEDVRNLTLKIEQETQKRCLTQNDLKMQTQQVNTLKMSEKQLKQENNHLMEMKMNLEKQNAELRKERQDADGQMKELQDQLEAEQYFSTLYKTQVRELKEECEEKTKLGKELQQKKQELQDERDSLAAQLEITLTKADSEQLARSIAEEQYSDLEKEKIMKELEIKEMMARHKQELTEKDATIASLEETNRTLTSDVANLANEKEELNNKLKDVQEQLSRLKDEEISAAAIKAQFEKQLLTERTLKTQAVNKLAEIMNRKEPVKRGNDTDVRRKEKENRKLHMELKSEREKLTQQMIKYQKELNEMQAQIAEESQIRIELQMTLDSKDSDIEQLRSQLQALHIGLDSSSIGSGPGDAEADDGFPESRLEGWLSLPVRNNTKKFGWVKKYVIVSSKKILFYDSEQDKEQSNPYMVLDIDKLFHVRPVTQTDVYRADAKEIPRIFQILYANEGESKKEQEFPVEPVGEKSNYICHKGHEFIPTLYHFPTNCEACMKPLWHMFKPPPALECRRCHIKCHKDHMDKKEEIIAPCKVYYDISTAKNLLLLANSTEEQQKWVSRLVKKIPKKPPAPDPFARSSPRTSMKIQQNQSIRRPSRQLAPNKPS
Test: ROCK assay (Caliper LABCHIP peptide phosphorylation, 5 μM ATP)
Assay type: biochemical
Settings: 1.5 μM peptide substrate
For `NS(=O)(=O)c1ccc(C(=O)Nc2ccc3c(c2)OCc2cnccc2-3)cc1` [Example I-40, N-(5H-chromeno[3,4-c]pyridin-8-yl)-4-sulfamoylbenzamide], the pIC50 was 6.30. `O=C(Nc1ccc2c(c1)OCc1cnccc1-2)c1csnn1` [Example I-41, N-(5H-chromeno[3,4-c]pyridin-8-yl)-1,2,3-thiadiazole-4-carboxamide] showed a pIC50 of 5.56. `O=C(Cc1cccnc1)Nc1ccc2c(c1)OCc1cnccc1-2` [Example I-42, N-(5H-chromeno[3,4-c]pyridin-8-yl)-2-(pyridin-3-yl) acetamide] gave a pIC50 of 6.54. In the case of `CS(=O)(=O)c1cccc(C(=O)Nc2ccc3c(c2)OCc2cnccc2-3)c1` [Example I-43, N-(5H-chromeno[3,4-c]pyridin-8-yl)-3-(methylsulfonyl) benzamide], the pIC50 was 5.66. `O=C(Nc1ccc2c(c1)OCc1cnccc1-2)c1cscn1` [Example I-44, N-(5H-chromeno[3,4-c]pyridin-8-yl) thiazole-4-carboxamide] showed a pIC50 of 5.84. Compound `O=C(Nc1ccc2c(c1)OCc1cnccc1-2)c1cncnc1` [Example I-45, N-(5H-chromeno[3,4-c]pyridin-8-yl) pyrimidine-5-carboxamide] has a pIC50 of 5.70. For `O=C(Nc1ccc2c(c1)OCc1cnccc1-2)C(O)c1ccccc1` (stereo not drawn) [Example I-46, N-(5H-chromeno[3,4-c]pyridin-8-yl)-2-hydroxy-2-phenylacetamide], the pIC50 was 7.29. `O=C(CCn1ccnc1)Nc1ccc2c(c1)OCc1cnccc1-2` [Example I-48, N-(5H-chromeno[3,4-c]pyridin-8-yl)-3-(1H-imidazol-1-yl) propanamide] gave a pIC50 of 6.00. With `O=C(Cc1cnccn1)Nc1ccc2c(c1)OCc1cnccc1-2` [Example I-49, N-(5H-chromeno[3,4-c]pyridin-8-yl)-2-(pyrazin-2-yl) acetamide] the pIC50 was 5.90. In the case of `O=C(Nc1ccc2c(c1)OCc1cnccc1-2)c1ccccc1` [Example I-50, N-(5H-chromeno[3,4-c]pyridin-8-yl)benzamide], the pIC50 was 5.32. `O=C(Nc1ccc2c(c1)OCc1cnccc1-2)c1ccccc1Cl` [Example I-51, 2-chloro-N-(5H-chromeno[3,4-c]pyridin-8-yl)benzamide] showed a pIC50 of 5.94. Work on `O=C(Nc1ccc2c(c1)OCc1cnccc1-2)c1cccc(F)c1` [Example I-52, N-(5H-chromeno[3,4-c]pyridin-8-yl)-3-fluorobenzamide] yielded a pIC50 of 5.45. With `O=C(Nc1ccc2c(c1)OCc1cnccc1-2)c1cccc(Cl)c1` [Example I-53, 3-chloro-N-(5H-chromeno[3,4-c]pyridin-8-yl)benzamide] the pIC50 was 5.35. `N#Cc1ccc(C(=O)Nc2ccc3c(c2)OCc2cnccc2-3)cc1` [Example I-54, N-(5H-chromeno[3,4-c]pyridin-8-yl)-4-cyanobenzamide] showed a pIC50 of 5.59. `COc1ccc(C(=O)Nc2ccc3c(c2)OCc2cnccc2-3)cc1` [Example I-55, N-(5H-chromeno[3,4-c]pyridin-8-yl)-4-methoxybenzamide] gave a pIC50 of 5.49. For `COC(=O)c1ccc(C(=O)Nc2ccc3c(c2)OCc2cnccc2-3)cc1` [Example I-56, methyl 4-(5H-chromeno[3,4-c]pyridin-8-ylcarbamoyl) benzoate], the pIC50 was 6.20. With `COc1ccc(CCC(=O)Nc2ccc3c(c2)OCc2cnccc2-3)cc1` [Example I-57, N-(5H-chromeno[3,4-c]pyridin-8-yl)-3-(4-methoxyphenyl) propanamide] the pIC50 was 5.94. `O=C(CCc1ccc(O)cc1)Nc1ccc2c(c1)OCc1cnccc1-2` [Example I-58, N-(5H-chromeno[3,4-c]pyridin-8-yl)-3-(4-hydroxyphenyl) propanamide] showed a pIC50 of 6.95. `O=C(Cc1nnn[nH]1)Nc1ccc2c(c1)OCc1cnccc1-2` [Example I-59, N-(5H-chromeno[3,4-c]pyridin-8-yl)-2-(1H-tetrazol-5-yl) acetamide] showed a pIC50 of 5.42. For `O=C(CCc1ccccc1)Nc1ccc2c(c1)OCc1cnccc1-2` [Example I-60, N-(5H-chromeno[3,4-c]pyridin-8-yl)-3-phenylpropanamide], the pIC50 was 7.39. With `O=C(Nc1ccc2c(c1)OCc1cnccc1-2)c1ccc2ccccc2c1` [Example I-61, N-(5H-chromeno[3,4-c]pyridin-8-yl)-2-naphthamide] the pIC50 was 5.33. Work on `CN(C)c1ccc(C(=O)Nc2ccc3c(c2)OCc2cnccc2-3)cc1` [Example I-63, N-(5H-chromeno[3,4-c]pyridin-8-yl)-4-(dimethylamino) benzamide] yielded a pIC50 of 5.63. For `Cn1cccc1C(=O)Nc1ccc2c(c1)OCc1cnccc1-2` [Example I-64, N-(5H-chromeno[3,4-c]pyridin-8-yl)-1-methyl-1H-pyrrole-2-carboxamide], the pIC50 was 5.53. For `O=C(Nc1ccc2c(c1)OCc1cnccc1-2)c1ccccc1-c1ccccc1` [Example I-65, N-(5H-chromeno[3,4-c]pyridin-8-yl) biphenyl-2-carboxamide], the pIC50 was 5.91. In the case of `COc1cccc(C(=O)Nc2ccc3c(c2)OCc2cnccc2-3)c1` [Example I-66, N-(5H-chromeno[3,4-c]pyridin-8-yl)-3-methoxybenzamide], the pIC50 was 5.59. With `O=C(CC(c1ccccc1)c1ccccc1)Nc1ccc2c(c1)OCc1cnccc1-2` [Example I-67, N-(5H-chromeno[3,4-c]pyridin-8-yl)-3,3-diphenylpropanamide] the pIC50 was 6.33. In the case of `O=C(Cc1ccc(Cl)c(Cl)c1)Nc1ccc2c(c1)OCc1cnccc1-2` [Example I-68, N-(5H-chromeno[3,4-c]pyridin-8-yl)-2-(3,4-dichlorophenyl) acetamide], the pIC50 was 6.44. Compound `O=C(Cc1ccc(C(F)(F)F)cc1)Nc1ccc2c(c1)OCc1cnccc1-2` [Example I-69, N-(5H-chromeno[3,4-c]pyridin-8-yl)-2-(4-(trifluoromethyl)phenyl)acetamide] has a pIC50 of 5.97. Compound `O=C(Cc1ccc(-n2cnc3ccccc3c2=O)cc1)Nc1ccc2c(c1)OCc1cnccc1-2` [Example I-70, N-(5H-chromeno[3,4-c]pyridin-8-yl)-2-(4-(4-oxoquinazolin-3(4H)-yl)phenyl) acetamide] has a pIC50 of 5.95. Work on `O=C(Nc1ccc2c(c1)OCc1cnccc1-2)c1csc(-c2ccncc2)n1` [Example I-71, N-(5H-chromeno[3,4-c]pyridin-8-yl)-2-(pyridin-4-yl)thiazole-4-carboxamide] yielded a pIC50 of 6.50. In the case of `O=C(Nc1ccc2c(c1)OCc1cnccc1-2)C1Cc2ccccc2C1` [Example I-72, N-(5H-chromeno[3,4-c]pyridin-8-yl)-2,3-dihydro-1H-indene-2-carboxamide], the pIC50 was 7.23. Work on `O=C(Nc1ccc2c(c1)OCc1cnccc1-2)c1nc2ccccc2[nH]1` [Example I-73, N-(5H-chromeno[3,4-c]pyridin-8-yl)-1H-benzo[d]imidazole-2-carboxamide] yielded a pIC50 of 6.21. In the case of `O=C(Nc1ccc2c(c1)OCc1cnccc1-2)N1CCc2ccccc21` [Example II-1, N-(5H-Chromeno[3,4-c]pyridin-8-yl)indoline-1-carboxamide], the pIC50 was 6.41. For `COc1cccc(CCC(=O)Nc2ccc3c(c2)[nH]c2cnccc23)c1` [Example IV-1, 3-(3-Methoxyphenyl)-N-(9H-pyrido[3,4-b]indol-7-yl)propanamide], the pIC50 was 7.29. Work on `O=C(Cc1cccc(F)c1)Nc1ccc2c(c1)[nH]c1cnccc12` [Example IV-3, 2-(3-Fluorophenyl)-N-(9H-pyrido[3,4-b]indol-7-yl)acetamide] yielded a pIC50 of 7.68. Work on `O=C(Cc1ccccc1)Nc1ccc2c(c1)[nH]c1cnccc12` [Example IV-4, 2-Phenyl-N-(9H-pyrido[3,4-b]indol-7-yl)acetamide] yielded a pIC50 of 8.02. Work on `N#Cc1cccc(CC(=O)Nc2ccc3c(c2)[nH]c2cnccc23)c1` [Example IV-5, 2-(3-Cyanophenyl)-N-(9H-pyrido[3,4-b]indol-7-yl)acetamide] yielded a pIC50 of 6.42. Work on `O=C(Nc1ccc2c(c1)OCc1cnccc1-2)Nc1ccccc1Cl` [II-2, 1-(2-chlorophenyl)-3-(5H-chromeno[3,4-c]pyridin-8-yl) urea] yielded a pIC50 of 6.25. With `O=C(NCCc1ccccc1)Nc1ccc2c(c1)OCc1cnccc1-2` [II-3, 1-(5H-chromeno[3,4-c]pyridin-8-yl)-3-phenethylurea] the pIC50 was 6.72. `O=C(Nc1cccc(Cl)c1)Nc1ccc2c(c1)OCc1cnccc1-2` [II-4, 1-(3-chlorophenyl)-3-(5H-chromeno[3,4-c]pyridin-8-yl) urea] gave a pIC50 of 5.63. In the case of `O=C(Nc1cccnc1)Nc1ccc2c(c1)OCc1cnccc1-2` [II-5, 1-(5H-chromeno[3,4-c]pyridin-8-yl)-3-(pyridin-3-yl)urea], the pIC50 was 5.85. For `COc1ccc(CCNC(=O)Nc2ccc3c(c2)OCc2cnccc2-3)cc1` [II-6, 1-(5H-chromeno[3,4-c]pyridin-8-yl)-3-(4-methoxyphenethyl) urea], the pIC50 was 5.79. In the case of `O=C(NCCc1ccccc1F)Nc1ccc2c(c1)OCc1cnccc1-2` [II-7, 1-(5H-chromeno[3,4-c]pyridin-8-yl)-3-(2-fluorophenethyl)urea], the pIC50 was 6.63. For `O=C(NCC(c1ccccc1)c1ccccc1)Nc1ccc2c(c1)OCc1cnccc1-2` [II-8, 1-(5H-chromeno[3,4-c]pyridin-8-yl)-3-(2,2-diphenylethyl)urea], the pIC50 was 6.04. For `O=C(NCCc1ccc(Cl)cc1)Nc1ccc2c(c1)OCc1cnccc1-2` [II-9, 1-(4-chlorophenethyl)-3-(5H-chromeno[3,4-c]pyridin-8-yl) urea], the pIC50 was 6.01. Work on `O=C(NCCc1cccc(Cl)c1)Nc1ccc2c(c1)OCc1cnccc1-2` [II-10, 1-(3-chlorophenethyl)-3-(5H-chromeno[3,4-c]pyridin-8-yl) urea] yielded a pIC50 of 6.61. In the case of `Cc1onc(-c2ccccc2)c1NC(=O)Nc1ccc2c(c1)OCc1cnccc1-2` [II-11, 1-(5H-chromeno[3,4-c]pyridin-8-yl)-3-(5-methyl-3-phenylisoxazol-4-yl)urea], the pIC50 was 5.65. For `O=C(NCCc1ccc2c(c1)OCO2)Nc1ccc2c(c1)OCc1cnccc1-2` [II-12, 1-(2-(benzo[d][1,3]dioxol-5-yl)ethyl)-3-(5H-chromeno[3,4-c]pyridin-8-yl)urea], the pIC50 was 6.16.

Tested on: rat stroke model
Test: not given
Settings: in vivo; cited from earlier work
For `O=S(=O)(c1cccc2cnccc12)N1CCCNCC1` [fasudil], the “infarct size and neurologic deficit” value is listed as “reduce both the infarct size and neurologic deficit”.
